The structures appear in SMILES notation.

Data on six compounds can be found in patent publication US11415579B2, “Assay for measuring a rate of reaction between a target and a ligand candidate” (Imperial College Innovations Ltd., priority 2016, dated 2022).

A short description of assay [1]: Kinetic thiol consumption assay with model thiol glutathione. Type of assay: physicochemical. Further details: Rate constant with glutathione (k(GSH)): unit not given here. As for the experimental part:
(§1) A library of 120 acrylamides was screened against a) human cyclin-dependent kinase 2 (Cdk2, which contains one surface exposed cysteine residue—C177), prepared by cloning cDNA into the pRSETA bacterial expression vector to generate a poly-histidine tagged Cdk2 fusion that was purified from E. coli using standard techniques, and b) a model thiol (specific details are given below). The structures of these 120 acrylamides are set out in Table 1, above.
(§2) To wells containing 150 μL thiol (Cdk2 or model thiol) (5 μM) in degassed phosphate buffer (pH 8) was added immobilized TCEP beads (2% v/v).
(§3) After incubation of the fluorescence plates for 1 hour at room temperature, fluorescence measurements (excitation/emission of 380/470 nm) were taken on a PerkinElmer EnVision multilabel plate reader and processed with EnVision Workstation version 1.12.
(§4) Fluorescence measurements were normalized against a DMSO/thiol only control and plotted against time.
(§5) Rate constants were calculated using GraphPad software Prism version 6 by fitting a first order exponential decay to the data. The rate constant for each acrylamide with Cdk2 was divided by the rate constant for that fragment with the model thiol to provide the rate enhancement for each ligand candidate.
The model thiol in Example 1 is glutathione (GSH). Hits were defined as fragments where kCdk2/kGSH>5.8 (empirically determined as 3 standard deviations over the mean).

The target of assay [2] is T1, human cyclin-dependent kinase 2 (Cdk2) (Homo sapiens, UniProt P24941).
T1 construct: poly-histidine; made in house; host or cells: E. coli
Put plainly: Kinetic thiol consumption assay with wild type Cdk2 (C177). Type of assay: binding. Also on record: key to Rate enhancement, Cdk2 WT: k(Cdk2) divided by k(model thiol); Rate constant with Cdk2 (k(Cdk2)): unit not given here. The following applies: for Rate enhancement, Cdk2 WT: no additional mutations; for Rate constant with Cdk2 WT: Protein: Cdk2, cysteine position WT, in h^-1. As for the experimental part:
as §1, §2, §3, §4, §5

Assay [3] addresses T2, Cdk2(C177A, F80C) (Homo sapiens, UniProt P24941, C177A/F80C).
T2 construct: poly-histidine; made in house; host or cells: E. coli
The assay can be described thus: Kinetic thiol consumption assay with Cdk2 mutant F80C, incl. kobs versus concentration (Kd, k2). The assay is classed as binding. Also on record: key to Rate enhancement, Cdk2 F80C: Cdk2 rate constant divided by model-thiol rate constant. The following applies: additional mutation C177A; for Rate constant with Cdk2 F80C: Protein: Cdk2, cysteine position F80C, in h^-1. As for the experimental part:
Therefore the assay can be used to calculate both k2 and Kd by experimentally determining kobs at a suitable range of ligand candidate concentrations. Typically Kd and k2 would then be determined by fitting a hyperbolic curve to a plot of kobs against ligand candidate concentration (FIG. 9).
as §2, §3, §4, §5
(§6) A further set of set of additional Cdk2 mutants were screened, all containing the C177A mutation and therefore with only one cysteine on the surface: • F80C (without the K278C mutation) • H71C • S276C • N272 • T182C • R122C • S181C
(§7) Mutations were introduced by site-directed mutagenesis and the resulting cDNA was cloned into the pRSETA bacterial expression vector to generate a poly-histidine tagged Cdk2 fusion that was purified from E. coli using standard techniques.
Rate constants were calculated as described in the methodology section of Examples 1 and 2.

The target of assay [4] is T3, Cdk2(H71C) (C177A) (Homo sapiens, UniProt P24941, C177A/H71C).
T3 construct: poly-histidine; made in house; host or cells: E. coli
The assay can be described thus: Kinetic thiol consumption assay with Cdk2 mutant H71C. The assay is classed as binding. Further details: key to Rate enhancement, Cdk2 H71C: rate constant with Cdk2 ÷ rate constant with model thiol (fold). The following applies: additional mutation C177A; for Rate constant with Cdk2 H71C: Protein: Cdk2, cysteine position H71C, in h^-1. As for the experimental part: as §2, §3, §4, §5, §6, §7

Assay [5] deals with T4, Cdk2(S276C) (C177A) (Homo sapiens, UniProt P24941, C177A/S276C).
T4 construct: poly-histidine; made in house; host or cells: E. coli
Put plainly: Kinetic thiol consumption assay with Cdk2 mutant S276C. The assay is classed as binding. Further details: key to Rate enhancement, Cdk2 S276C: rate constant with Cdk2 ÷ rate constant with model thiol (fold). The settings on record: additional mutation C177A; for Rate constant with Cdk2 S276C: Protein: Cdk2, cysteine position S276C, in h^-1. As for the experimental part: as §2, §3, §4, §5, §6, §7

For assay [6], the target named is T5, Cdk2(N272C) (C177A) (Homo sapiens, UniProt P24941, C177A/N272C).
T5 construct: poly-histidine; made in house; host or cells: E. coli
The assay can be described thus: Kinetic thiol consumption assay with Cdk2 mutant N272C. The assay is classed as binding. Also on record: key to Rate enhancement, Cdk2 N272: rate constant with Cdk2 ÷ rate constant with model thiol (fold). The settings on record: for Rate enhancement, Cdk2 N272: Cdk2 N272, additional mutation C177A; for Rate constant with Cdk2 N272C: Protein: Cdk2, cysteine position N272C, additional mutation C177A, in h^-1. As for the experimental part: as §2, §3, §4, §5, §6, §7

Assay [7] addresses T6, Cdk2(T182C) (C177A) (Homo sapiens, UniProt P24941, C177A/T182C).
T6 construct: poly-histidine; made in house; host or cells: E. coli
Put plainly: Kinetic thiol consumption assay with Cdk2 mutant T182C. The assay is classed as binding. Further details: key to Rate enhancement, Cdk2 T182C: rate constant with Cdk2 ÷ rate constant with model thiol (fold). The following applies: additional mutation C177A; for Rate constant with Cdk2 T182C: Protein: Cdk2, cysteine position T182C, in h^-1. As for the experimental part:
as §2, §3, §4, §5, §6, §7

Assay [8] has as its target T7, Cdk2(R122C) (C177A) (Homo sapiens, UniProt P24941, C177A/R122C).
T7 construct: poly-histidine; made in house; host or cells: E. coli
The assay can be described thus: Kinetic thiol consumption assay with Cdk2 mutant R122C. Type of assay: binding. Further details: key to Rate enhancement, Cdk2 R122C: rate constant with Cdk2 ÷ rate constant with model thiol (fold). The settings on record: additional mutation C177A; for Rate constant with Cdk2 R122C: Protein: Cdk2, cysteine position R122C, in h-1. Here is the method: as §2, §3, §4, §5, §6, §7

Assay [9] has as its target T8, Cdk2(S181C) (C177A) (Homo sapiens, UniProt P24941, C177A/S181C).
T8 construct: poly-histidine; made in house; host or cells: E. coli
Put plainly: Kinetic thiol consumption assay with Cdk2 mutant S181C. Type of assay: binding. Also on record: key to Rate enhancement, Cdk2 S181C: rate constant with Cdk2 ÷ rate constant with model thiol (fold). The following applies: additional mutation C177A; for Rate constant with Cdk2 S181C: Protein: Cdk2, cysteine position S181C, in h^-1. Here is the method:
as §2, §3, §4, §5, §6, §7

Setting [10] is: 500 μM ligand, 5 μM thiol, phosphate buffer pH 8.

Consider `C=CC(=O)N(c1cccc2ncccc12)C1CCC1` [CA-032/228], for which, in assay [1] (Protein: Glutathione, cysteine position NA, in h-1), the “Rate constant with Glutathione” value stood at 0.01636. For the same compound, in [2], the “Rate enhancement, Cdk2 WT” value is 1.405 and the “Rate constant with Cdk2 WT” value is given as 0.02299. Also, in assay [3], the “Rate enhancement, Cdk2 F80C” value is 2.232 and the “Rate constant with Cdk2 F80C” value stood at 0.03651. Also, in assay [4], the “Rate enhancement, Cdk2 H71C” value came to 15.36 and the “Rate constant with Cdk2 H71C” value is given as 0.2513. Further, in assay [5], the “Rate enhancement, Cdk2 S276C” value was found to be 1.851 and the “Rate constant with Cdk2 S276C” value stood at 0.03029. In addition, in assay [6], the “Rate enhancement, Cdk2 N272” value came out at 3.007 and the “Rate constant with Cdk2 N272C” value was 0.04919. Further, in assay [7], the “Rate enhancement, Cdk2 T182C” value came out at 14.8 and the “Rate constant with Cdk2 T182C” value was found to be 0.2422. Also, in [8], the “Rate enhancement, Cdk2 R122C” value is on record as 1.534 and the “Rate constant with Cdk2 R122C” value came to 0.02509. In [9], the “Rate enhancement, Cdk2 S181C” value is 1.043 and the “Rate constant with Cdk2 S181C” value was 0.01707.

In the case of `C=CC(=O)N(CC(=O)N1CCCC1)CC1CCCO1` (centres unmarked) [CA-080], the “Rate constant with glutathione (k(GSH))” value in assay [1] (setting [10]) is given as 0.00706. Besides, in assay [2] (setting [10]), the “Rate constant with Cdk2 (k(Cdk2))” value was 0.00195. In assay [2] (model thiol glutathione), the “k(Cdk2)/k(GSH) rate enhancement” value is 0.2764.

On to `Cn1cc(S(=O)(=O)N2CCOCC2)cc1C(=O)NC(=O)CCl` [EN002], for which, in assay [2], the “Rate enhancement, Cdk2 WT” value is given as 1.276 and the “Rate constant with Cdk2 WT” value stood at 0.006451. Also, in [3], the “Rate enhancement, Cdk2 F80C” value was determined as 49.31 and the “Rate constant with Cdk2 F80C” value is 0.2493. Besides, in assay [4], the “Rate enhancement, Cdk2 H71C” value was 7.5652E−12 and the “Rate constant with Cdk2 H71C” value stood at 3.825E−14. Moreover, the “Rate enhancement, Cdk2 S276C” value in assay [5] is reported as 0. Moreover, in [6], the “Rate enhancement, Cdk2 N272” value was 1.133 and the “Rate constant with Cdk2 N272C” value was found to be 0.00573. Also, in [7], the “Rate enhancement, Cdk2 T182C” value was 2.567 and the “Rate constant with Cdk2 T182C” value is recorded as 0.01298. Moreover, in assay [8], the “Rate enhancement, Cdk2 R122C” value came out at 0.1371 and the “Rate constant with Cdk2 R122C” value amounted to 0.0006932. Besides, in assay [9], the “Rate enhancement, Cdk2 S181C” value came to 0.2957 and the “Rate constant with Cdk2 S181C” value is 0.001495.

Regarding `N#Cc1ccncn1` [EN007], in assay [2], the “Rate enhancement, Cdk2 WT” value is reported as 0. In addition, in [3], the “Rate enhancement, Cdk2 F80C” value stood at 0.9144 and the “Rate constant with Cdk2 F80C” value is given as 0.001332. The “Rate enhancement, Cdk2 H71C” value in [4] is reported as 0. Besides, the “Rate enhancement, Cdk2 S276C” value in assay [5] was found to be 0. Moreover, in [6], the “Rate enhancement, Cdk2 N272” value worked out at 0 and the “Rate constant with Cdk2 N272C” value stood at 0.001652. In assay [7], the “Rate enhancement, Cdk2 T182C” value is given as 0.9515 and the “Rate constant with Cdk2 T182C” value came to 0.001386.

On to `FC(F)(F)c1cc(Cl)ncc1Br` [EN008], for which, in assay [2], the “Rate enhancement, Cdk2 WT” value is reported as 0. Also, in assay [3], the “Rate enhancement, Cdk2 F80C” value is 4.64 and the “Rate constant with Cdk2 F80C” value is reported as 0.2076. Further, the “Rate enhancement, Cdk2 H71C” value in assay [4] turned out to be 0. In assay [5], the “Rate enhancement, Cdk2 S276C” value stood at 1.5439E−13 and the “Rate constant with Cdk2 S276C” value came out at 6.908E−15. Moreover, in assay [6], the “Rate enhancement, Cdk2 N272” value came out at 0.2037 and the “Rate constant with Cdk2 N272C” value was found to be 0.009116. Further, in [7], the “Rate enhancement, Cdk2 T182C” value came to 0.1321 and the “Rate constant with Cdk2 T182C” value came to 0.005911. In [8], the “Rate enhancement, Cdk2 R122C” value came to 0. In addition, in assay [9], the “Rate enhancement, Cdk2 S181C” value is on record as 0.02434 and the “Rate constant with Cdk2 S181C” value is 0.001089.

Take `CN(C#N)Cc1ccccc1` [EN009]: the “Rate enhancement, Cdk2 WT” value in assay [2] came to 0. In assay [3], the “Rate enhancement, Cdk2 F80C” value was 3.246 and the “Rate constant with Cdk2 F80C” value is listed as 0.02092. Besides, in assay [4], the “Rate enhancement, Cdk2 H71C” value came out at 5.4624E−12 and the “Rate constant with Cdk2 H71C” value worked out at 3.52E−14. In addition, in assay [5], the “Rate enhancement, Cdk2 S276C” value was 0.921 and the “Rate constant with Cdk2 S276C” value was found to be 0.005935. For the same compound, the “Rate enhancement, Cdk2 N272” value in assay [6] is reported as 0. Besides, in assay [7], the “Rate enhancement, Cdk2 T182C” value is listed as 1.07 and the “Rate constant with Cdk2 T182C” value worked out at 0.006898. In [8], the “Rate enhancement, Cdk2 R122C” value is recorded as 0.132 and the “Rate constant with Cdk2 R122C” value was 0.0008504. Besides, in [9], the “Rate enhancement, Cdk2 S181C” value was 0.6302 and the “Rate constant with Cdk2 S181C” value is on record as 0.004061.
